Results from PMC3082437 (Journal of biomolecular screening, 2010).
Like-named read-outs stand apart in the source and are kept apart here. Where a SMILES comes first, the peptide text is derived from it. The star is where a group is joined. Cbz = O=C(OCc1ccccc1)*

System: K328M-Wee1-Luc fusion protein in transiently transfected HeLa cells
Assay: K328M-Wee1-Luc degradation
Type: cell-based

Question: Which “hill slope of dose-response curve” value does the source give for `CC(C)C[C@@H](C=O)NC(=O)[C@H](CC(C)C)NC(=O)[C@H](CC(C)C)NC(=O)OCc1ccccc1` [MG132, Z-Leu-Leu-Leu-CHO] (Cbz-Leu-Leu-Leu-aldehyde) here?
Answer: > 2.5

Question: What about the “increase in luminescent levels” value (30 μM, vs DMSO) of the same compound?
Answer: > 9 fold

Question: And the EC50 (optimized 1536-well protocol, n=5)?
Answer: 4.69 µM

Question: What about the EC50 (read-out: EC50, different thawed vials from a single batch, n=4) of the same compound?
Answer: 4.7 µM

Question: And the EC50 (read-out: EC50, non-cryopreserved cells, non-cryopreserved cell suspensions)?
Answer: 5.33 µM
